Target: mouse TRPM3α2 (mTRPM3) ion channel (Mus musculus (Mouse), UniProt J9SQF3)
Experiment: TRPM3 ion channel driven Ca2+ uptake, Fluo-4 AM assay, mTRPM3alpha2 overexpressing flip-in HEK293 cells stimulated with pregnenolone sulfate
Type: cell-based
Conditions: PS 50 μM, cpds 300-399
Procedure, shortened: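 Flip-in HEK293 cells loaded with Fluo-4 AM were added to plates holding compound plus 50 μM pregnenolone sulfate in Ca2+-containing Krebs buffer. Fluorescence (ex 485/em 535 nm) read directly after cell addition; % inhibition relative to PS-stimulated vehicle and positive-control inhibitor.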

mouse TRPM3α2 (mTRPM3) ion channel, sequence (J9SQF3 other isoform, or with tags, fused parts or gaps): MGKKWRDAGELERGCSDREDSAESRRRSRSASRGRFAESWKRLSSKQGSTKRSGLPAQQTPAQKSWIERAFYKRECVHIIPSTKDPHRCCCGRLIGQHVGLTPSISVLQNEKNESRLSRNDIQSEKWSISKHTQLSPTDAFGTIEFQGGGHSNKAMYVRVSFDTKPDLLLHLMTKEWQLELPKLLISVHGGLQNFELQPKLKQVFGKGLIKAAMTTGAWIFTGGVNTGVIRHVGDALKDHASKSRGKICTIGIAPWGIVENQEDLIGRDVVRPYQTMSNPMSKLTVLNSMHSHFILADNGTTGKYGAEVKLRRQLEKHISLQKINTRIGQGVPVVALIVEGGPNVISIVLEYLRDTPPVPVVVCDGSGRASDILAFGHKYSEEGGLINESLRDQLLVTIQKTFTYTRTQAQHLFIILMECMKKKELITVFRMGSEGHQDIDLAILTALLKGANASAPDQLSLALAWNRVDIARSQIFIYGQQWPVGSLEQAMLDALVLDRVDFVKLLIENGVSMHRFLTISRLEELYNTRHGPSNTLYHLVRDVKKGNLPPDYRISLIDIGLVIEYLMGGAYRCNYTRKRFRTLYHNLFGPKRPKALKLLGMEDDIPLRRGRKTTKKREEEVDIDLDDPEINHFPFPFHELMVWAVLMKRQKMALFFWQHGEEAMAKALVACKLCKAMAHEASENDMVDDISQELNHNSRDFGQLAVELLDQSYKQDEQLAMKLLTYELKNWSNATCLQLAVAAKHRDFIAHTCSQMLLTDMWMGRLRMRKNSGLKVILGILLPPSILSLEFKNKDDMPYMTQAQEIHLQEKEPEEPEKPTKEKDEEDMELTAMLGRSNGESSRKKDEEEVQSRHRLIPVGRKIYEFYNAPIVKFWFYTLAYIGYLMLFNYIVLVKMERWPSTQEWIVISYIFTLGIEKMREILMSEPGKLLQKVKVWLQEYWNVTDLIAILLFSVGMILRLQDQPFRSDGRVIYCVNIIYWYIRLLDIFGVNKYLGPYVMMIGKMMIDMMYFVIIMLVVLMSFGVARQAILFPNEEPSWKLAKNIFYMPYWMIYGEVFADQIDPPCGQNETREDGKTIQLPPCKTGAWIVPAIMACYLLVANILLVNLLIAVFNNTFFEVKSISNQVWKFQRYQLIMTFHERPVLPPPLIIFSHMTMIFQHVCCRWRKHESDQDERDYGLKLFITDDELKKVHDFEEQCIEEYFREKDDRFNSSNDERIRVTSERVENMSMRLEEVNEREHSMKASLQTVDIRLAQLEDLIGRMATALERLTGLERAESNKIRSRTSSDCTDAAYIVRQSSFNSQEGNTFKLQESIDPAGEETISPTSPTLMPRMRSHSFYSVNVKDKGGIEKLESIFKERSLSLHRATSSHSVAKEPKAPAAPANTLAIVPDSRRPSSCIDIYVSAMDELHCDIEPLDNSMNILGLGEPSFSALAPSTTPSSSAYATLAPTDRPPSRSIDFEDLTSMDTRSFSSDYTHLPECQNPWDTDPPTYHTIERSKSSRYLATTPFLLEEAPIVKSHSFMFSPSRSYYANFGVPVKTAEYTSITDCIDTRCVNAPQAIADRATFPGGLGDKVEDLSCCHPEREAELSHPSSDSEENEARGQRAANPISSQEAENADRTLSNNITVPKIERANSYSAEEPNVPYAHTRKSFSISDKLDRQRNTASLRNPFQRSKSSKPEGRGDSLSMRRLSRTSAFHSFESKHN

IC50 [µM]	SMILES
< 1	Cc1ncc(COc2ccc3oc(C)c(C(=O)NCC4(F)CCOCC4)c3c2)s1 [compound 393, N-((4-fluorotetrahydro-2H-pyran-4-yl)methyl)-2-methyl-5-((2-methylthiazol-5-yl)methoxy)benzofuran-3-carboxamide]
< 1	Cc1ncsc1COc1ccc2oc(C)c(C(=O)NCC3(F)CCOCC3)c2c1 [compound 394, N-((4-fluorotetrahydro-2H-pyran-4-yl)methyl)-2-methyl-5-((4-methylthiazol-5-yl)methoxy)benzofuran-3-carboxamide]
< 1	Cc1ncsc1COc1ccc2oc(C)c(C(=O)NC(C)(C)C(=O)NCCO)c2c1 [compound 398, N-(1-((2-hydroxyethyl)amino)-2-methyl-1-oxopropan-2-yl)-2-methyl-5-((4-methylthiazol-5-yl)methoxy)benzofuran-3-carboxamide]
< 1	Cc1ncc(COc2ccc3oc(C)c(C(=O)NC4(COC(F)F)CC4)c3c2)s1 [compound 399, N-(1-((difluoromethoxy)methyl)cyclopropyl)-2-methyl-5-((2-methylthiazol-5-yl)methoxy)benzofuran-3-carboxamide]

Same assay, conditions: PS (50 μM) stimulated, cpds. 400-499

SMILES	IC50 [µM]
Cc1oc2ccc(OCc3cccnc3C(F)(F)F)cc2c1C(=O)NC(C)(CO)CO [compound 424, N-(1,3-dihydroxy-2-methylpropan-2-yl)-2-methyl-5-((2-(trifluoromethyl)pyridin-3-yl)methoxy)benzofuran-3-carboxamide]	< 1
Cc1ncc(COc2ccc3oc(C)c(C(=O)NC(C)(CO)CO)c3c2)s1 [compound 425, N-(1,3-dihydroxy-2-methylpropan-2-yl)-2-methyl-5-((2-methylthiazol-5-yl)methoxy)benzofuran-3-carboxamide]	< 1
Cc1ncsc1COc1ccc2oc(C)c(C(=O)NC(C)(CO)CO)c2c1 [compound 426, N-(1,3-dihydroxy-2-methylpropan-2-yl)-2-methyl-5-((4-methylthiazol-5-yl)methoxy)benzofuran-3-carboxamide]	< 1
Cc1oc2ccc(OCc3cccnn3)cc2c1C(=O)NC(C)(CO)CO [compound 427, N-(1,3-dihydroxy-2-methylpropan-2-yl)-2-methyl-5-(pyridazin-3-ylmethoxy)benzofuran-3-carboxamide]	< 1
Cc1oc2ccc(OCc3ccccn3)cc2c1C(=O)NC(C)(CO)CO [compound 428, N-(1,3-dihydroxy-2-methylpropan-2-yl)-2-methyl-5-(pyridin-2-ylmethoxy)benzofuran-3-carboxamide]	< 1
Cc1oc2ccc(OCc3ccncn3)cc2c1C(=O)NC(C)(CO)CO [compound 429, N-(1,3-dihydroxy-2-methylpropan-2-yl)-2-methyl-5-(pyrimidin-4-ylmethoxy)benzofuran-3-carboxamide]	< 1
Cc1oc2ccc(OCc3cccnc3O)cc2c1C(=O)NC(C)(CO)CO [compound 430, N-(1,3-dihydroxy-2-methylpropan-2-yl)-5-((2-hydroxypyridin-3-yl)methoxy)-2-methylbenzofuran-3-carboxamide]	< 1
COc1ncccc1COc1ccc2oc(C)c(C(=O)NC(C)(CO)CO)c2c1 [compound 431, N-(1,3-dihydroxy-2-methylpropan-2-yl)-5-((2-methoxypyridin-3-yl)methoxy)-2-methylbenzofuran-3-carboxamide]	< 1
Cc1oc2ccc(OCc3ccnn3C)cc2c1C(=O)NC(C)(C)C(N)=O [compound 438, N-(1-amino-2-methyl-1-oxopropan-2-yl)-2-methyl-5-((1-methyl-1H-pyrazol-5-yl)methoxy)benzofuran-3-carboxamide]	< 1
Cc1ncc(COc2ccc3oc(C)c(C(=O)NC(C)(C)C(N)=O)c3c2)s1 [compound 439, N-(1-amino-2-methyl-1-oxopropan-2-yl)-2-methyl-5-((2-methylthiazol-5-yl)methoxy)benzofuran-3-carboxamide]	< 1
Cc1ncsc1COc1ccc2oc(C)c(C(=O)NC(C)(C)C(N)=O)c2c1 [compound 440, N-(1-amino-2-methyl-1-oxopropan-2-yl)-2-methyl-5-((4-methylthiazol-5-yl)methoxy)benzofuran-3-carboxamide]	< 1
Cc1oc2ccc(OCc3cccnn3)cc2c1C(=O)NC(C)(C)C(N)=O [compound 441, N-(1-amino-2-methyl-1-oxopropan-2-yl)-2-methyl-5-(pyridazin-3-ylmethoxy)benzofuran-3-carboxamide]	< 1
Cc1oc2ccc(OCc3ccccn3)cc2c1C(=O)NC(C)(C)C(N)=O [compound 442, N-(1-amino-2-methyl-1-oxopropan-2-yl)-2-methyl-5-(pyridin-2-ylmethoxy)benzofuran-3-carboxamide]	< 1
Cc1oc2ccc(OCc3cccnc3O)cc2c1C(=O)NC(C)(C)C(N)=O [compound 443, N-(1-amino-2-methyl-1-oxopropan-2-yl)-5-((2-hydroxypyridin-3-yl)methoxy)-2-methylbenzofuran-3-carboxamide]	< 1
COc1ncccc1COc1ccc2oc(C)c(C(=O)NC(C)(C)C(N)=O)c2c1 [compound 444, N-(1-amino-2-methyl-1-oxopropan-2-yl)-5-((2-methoxypyridin-3-yl)methoxy)-2-methylbenzofuran-3-carboxamide]	< 1
Cc1ncsc1COc1ccc2oc(C)c(C(=O)NC(CO)C(N)=O)c2c1 (stereo not drawn) [compound 454, N-(1-amino-3-hydroxy-1-oxopropan-2-yl)-2-methyl-5-((4-methylthiazol-5-yl)methoxy)benzofuran-3-carboxamide]	< 1
Cc1ncsc1COc1ccc2oc(C)c(C(=O)NC3(C(N)=O)CC(F)(F)C3)c2c1 [compound 470, N-(1-carbamoyl-3,3-difluorocyclobutyl)-2-methyl-5-((4-methylthiazol-5-yl)methoxy)benzofuran-3-carboxamide]	< 1
Cc1ncc(COc2ccc3oc(C)c(C(=O)NC4(C(N)=O)CCC4)c3c2)s1 [compound 471, N-(1-carbamoylcyclobutyl)-2-methyl-5-((2-methylthiazol-5-yl)methoxy)benzofuran-3-carboxamide]	< 1
Cc1oc2ccc(OCc3ccccn3)cc2c1C(=O)NC1(C(N)=O)CCC1 [compound 472, N-(1-carbamoylcyclobutyl)-2-methyl-5-(pyridin-2-ylmethoxy)benzofuran-3-carboxamide]	< 1
Cc1oc2ccc(OCc3cccnc3O)cc2c1C(=O)NC1(C(N)=O)CCC1 [compound 473, N-(1-carbamoylcyclobutyl)-5-((2-hydroxypyridin-3-yl)methoxy)-2-methylbenzofuran-3-carboxamide]	< 1
COc1ncccc1COc1ccc2oc(C)c(C(=O)NC3(C(N)=O)CCC3)c2c1 [compound 474, N-(1-carbamoylcyclobutyl)-5-((2-methoxypyridin-3-yl)methoxy)-2-methylbenzofuran-3-carboxamide]	< 1

Further lines, results first:

IC50 [µM]	SMILES
< 1	Cc1ncsc1COc1ccc2oc(C)c(C(=O)NC3(COC(F)F)CC3)c2c1 [compound 400, N-(1-((difluoromethoxy)methyl)cyclopropyl)-2-methyl-5-((4-methylthiazol-5-yl)methoxy)benzofuran-3-carboxamide]
< 1	Cc1ncc(COc2ccc3oc(C)c(C(=O)NC4(CO)CCC4)c3c2)s1 [compound 414, N-(1-(hydroxymethyl)cyclobutyl)-2-methyl-5-((2-methylthiazol-5-yl)methoxy)benzofuran-3-carboxamide]
< 1	Cc1oc2ccc(OCc3ccccn3)cc2c1C(=O)NC1(CO)CCC1 [compound 415, N-(1-(hydroxymethyl)cyclobutyl)-2-methyl-5-(pyridin-2-ylmethoxy)benzofuran-3-carboxamide]
< 1	Cc1oc2ccc(OCc3cccnc3O)cc2c1C(=O)NC1(CO)CCC1 [compound 416, N-(1-(hydroxymethyl)cyclobutyl)-5-((2-hydroxypyridin-3-yl)methoxy)-2-methylbenzofuran-3-carboxamide]
< 1	COc1ncccc1COc1ccc2oc(C)c(C(=O)NC3(CO)CCC3)c2c1 [compound 417, N-(1-(hydroxymethyl)cyclobutyl)-5-((2-methoxypyridin-3-yl)methoxy)-2-methylbenzofuran-3-carboxamide]
< 1	Cc1ncc(COc2ccc3oc(C)c(C(=O)NC4(CO)CC4)c3c2)s1 [compound 418, N-(1-(hydroxymethyl)cyclopropyl)-2-methyl-5-((2-methylthiazol-5-yl)methoxy)benzofuran-3-carboxamide]
< 1	Cc1oc2ccc(OCc3ccccn3)cc2c1C(=O)NC1(CO)CC1 [compound 419, N-(1-(hydroxymethyl)cyclopropyl)-2-methyl-5-(pyridin-2-ylmethoxy)benzofuran-3-carboxamide]
< 1	Cc1oc2ccc(OCc3cccnc3O)cc2c1C(=O)NC1(CO)CC1 [compound 420, N-(1-(hydroxymethyl)cyclopropyl)-5-((2-hydroxypyridin-3-yl)methoxy)-2-methylbenzofuran-3-carboxamide]
< 1	COc1ncccc1COc1ccc2oc(C)c(C(=O)NC3(CO)CC3)c2c1 [compound 421, N-(1-(hydroxymethyl)cyclopropyl)-5-((2-methoxypyridin-3-yl)methoxy)-2-methylbenzofuran-3-carboxamide]
< 1	Cc1oc2ccc(OCc3nccn3C)cc2c1C(=O)NC(C)(CO)CO [compound 422, N-(1,3-dihydroxy-2-methylpropan-2-yl)-2-methyl-5-((1-methyl-1H-imidazol-2-yl)methoxy)benzofuran-3-carboxamide]
< 1	Cc1oc2ccc(OCc3ccnn3C)cc2c1C(=O)NC(C)(CO)CO [compound 423, N-(1,3-dihydroxy-2-methylpropan-2-yl)-2-methyl-5-((1-methyl-1H-pyrazol-5-yl)methoxy)benzofuran-3-carboxamide]

From patent US12209081B2 (Katholieke Universiteit Leuven, priority 2020, dated 2025)
